Results on 11 compounds are retold here after ChEMBL document CHEMBL1201862, “PubChem BioAssay data set” (2004).

Structures are written as SMILES.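 Where inhibition never reached the appropriate level, the endpoint shown equals the highest concentration tested. Otherwise, values were interpolated linearly from a five-concentration, 48-hour dose response in 96-well plates. The concentration for 50% growth inhibition is given as GI50.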 Active and inactive are the calls of the source. Rule as the data show it: active = GI50 up to about 1.1 µM and inactive = higher.

Test systems include RXF 393; SW-620; MDA-MB-231; OVCAR-4; CCRF-CEM; SF-295; MOLT-4; HL-60; MCF7; OVCAR-8; LOX IMVI; NCI-H226; MDA-N; EKVX; HOP-62; HCT-15; NCI/ADR-RES; A498; NCI-H460; SF-539.
Common to all, as to assay: DTP human tumour cell line panel, 48 h

Regarding `COC(=O)[C@@H]1[C@H](O)[C@H](C)[C@H](O)[C@H](C)/C=C\C=C(\C)C(=O)Nc2c(C)c(OC(C)=O)c3c(c2O)C(=O)C(C)=C2OCOC(=C23)/C(C)=C/[C@@H](O)[C@H](O)[C@@H](C)[C@H]1OC(C)=O`, the GI50 is > 100 µM (inactive) in the test with RXF 393; 32.1 µM (inactive) with SW-620; 92.9 µM (inactive) with MDA-MB-231; 33.2 µM (inactive) with OVCAR-4; 44.9 µM (inactive) in the test with CCRF-CEM; > 100 µM (inactive) in the test on SF-295. The GI50 in the test on MOLT-4 is 26.5 µM (inactive); with HL-60 it was 5.36 µM (inactive); with MCF7 it was 26.2 µM (inactive); in the test with OVCAR-8 it was 43.8 µM (inactive); with LOX IMVI, 40 µM (inactive); in the test on NCI-H226 it was > 100 µM (inactive). Also, the GI50 with MDA-N is 22.2 µM (inactive); in the test with EKVX, > 100 µM (inactive); with HOP-62, > 100 µM (inactive).
For the compound `OCC1OC(n2cnc3c(Cl)nc(Nc4ccc(Cl)c(Cl)c4)nc32)CC1O` (centres undefined), the GI50 with RXF 393 was 10.3 µM (inactive); in the test on SW-620 it was 11.9 µM (inactive); in the test with MDA-MB-231, 11.8 µM (inactive); in the test with OVCAR-4, 10.1 µM (inactive); in the test on CCRF-CEM, 8.65 µM (inactive); in the test on SF-295, 7.98 µM (inactive). Moreover, the GI50 in the test on MOLT-4 was 5.02 µM (inactive); in the test on HL-60, 7.05 µM (inactive); in the test on MCF7 it was 11 µM (inactive); in the test on OVCAR-8, 10.3 µM (inactive); with LOX IMVI, 7.78 µM (inactive); with HCT-15, 8.63 µM. Moreover, the GI50 with NCI-H226 was 8.15 µM (inactive); in the test on NCI/ADR-RES it was 10.4 µM (inactive); in the test with A498, 10.7 µM (inactive); with NCI-H460, 7.91 µM (inactive); in the test with EKVX, 9.98 µM (inactive); with HOP-62 it was 10.5 µM (inactive).
As for `O=c1[nH]c(=O)n(CCOc2ccccc2)cc1Nc1ccccc1`, the GI50 in the test on RXF 393 is 37.3 µM (inactive); in the test on SW-620 it was > 100 µM (inactive); in the test with CCRF-CEM, > 100 µM (inactive); in the test with SF-295, 41.8 µM (inactive); with MOLT-4, > 100 µM (inactive); in the test with MCF7, > 100 µM (inactive). The GI50 is > 100 µM (inactive) with LOX IMVI; more than 100 µM with HCT-15; > 100 µM (inactive) in the test with NCI/ADR-RES; > 100 µM (inactive) in the test with A498; > 100 µM (inactive) with MDA-N; > 100 µM (inactive) in the test with NCI-H460. Besides, the GI50 in the test with EKVX was > 100 µM (inactive); in the test on HOP-62 it was 22.3 µM (inactive).
Regarding `COc1cc2c(c(O)c1OC)C(=O)C(Cc1ccc(O)cc1)CO2` (centres undefined), the GI50 was 13 µM (inactive) in the test with RXF 393; 30.1 µM (inactive) in the test with SW-620; 22.9 µM (inactive) with MDA-MB-231; 44.7 µM (inactive) with OVCAR-4; 24.5 µM (inactive) in the test with CCRF-CEM; 5.46 µM (inactive) in the test on SF-295. For the same compound, the GI50 is 35.2 µM (inactive) in the test on MOLT-4; 29.2 µM (inactive) in the test on HL-60; 2.33 µM (inactive) in the test with MCF7; 38.2 µM (inactive) in the test on OVCAR-8; 16.1 µM (inactive) in the test on SF-539; 34.1 µM (inactive) with LOX IMVI. Moreover, the GI50 in the test on HCT-15 was 11.2 µM; with NCI-H226, 37.9 µM (inactive); with NCI/ADR-RES, 10.5 µM (inactive); in the test on NCI-H460, 32.7 µM (inactive); in the test on HOP-62, 27.2 µM (inactive).
In the case of `CC(CC=O)Nc1nn2c(=O)c3ccccc3nc2s1` (centres undefined), the GI50 in the test with RXF 393, with SW-620, in the test on OVCAR-4, in the test with CCRF-CEM, with SF-295 and with MOLT-4 was > 100 µM (inactive) throughout. For the same compound, the GI50 is > 100 µM (inactive) with MCF7; > 100 µM (inactive) with OVCAR-8; > 100 µM (inactive) in the test with SF-539; > 100 µM (inactive) in the test on LOX IMVI; more than 100 µM in the test on HCT-15; > 100 µM (inactive) in the test on NCI-H226. Also, the GI50 with NCI/ADR-RES, in the test with A498, in the test with NCI-H460, with EKVX and in the test on HOP-62 was > 100 µM (inactive) each time.
Consider `CC1=N[C@@](C)(C2CC3C=CC2C3=O)COC1=O` (some centres undefined), for which the GI50 with RXF 393, in the test with SW-620, with MDA-MB-231, in the test on OVCAR-4, in the test on CCRF-CEM and in the test with SF-295 was > 100 µM (inactive) each time. The GI50 with MOLT-4, with HL-60, in the test with MCF7, in the test with OVCAR-8, with SF-539 and with NCI-H226 was > 100 µM (inactive) in each case. The GI50 in the test on A498, in the test with MDA-N, with NCI-H460, in the test on EKVX and in the test on HOP-62 was > 100 µM (inactive) in each case.
Turning to `Cl/C(=C\C=N\c1ccc(I)cc1)c1ccc2ccccc2c1`, the GI50 in the test on RXF 393 is 22.2 µM (inactive); in the test on SW-620 it was 19.1 µM (inactive); in the test with MDA-MB-231, 14.5 µM (inactive); with OVCAR-4 it was 24.5 µM (inactive); in the test with CCRF-CEM, 7.29 µM (inactive); in the test with SF-295 it was 19.1 µM (inactive). Moreover, the GI50 is 5.13 µM (inactive) in the test on MOLT-4; 12.9 µM (inactive) in the test on HL-60; 23.2 µM (inactive) with MCF7; 17.4 µM (inactive) in the test with OVCAR-8; 19.9 µM (inactive) with SF-539; 8.53 µM (inactive) in the test on LOX IMVI. Further, the GI50 in the test with HCT-15 was 12.6 µM; with NCI-H226, 20.8 µM (inactive); in the test on NCI/ADR-RES, 14.9 µM (inactive); in the test with A498 it was 47.6 µM (inactive); in the test with NCI-H460, 24.2 µM (inactive); in the test on EKVX, 36.2 µM (inactive). Moreover, in the test on HOP-62, the GI50 is 17.7 µM (inactive).
Regarding `CC(C)CCC[C@@H](C)[C@H]1CCC2C3CC=C4C[C@@H](Oc5c6ccccc6nc6ccccc56)CCC4C3CCC21` (some centres undefined), the GI50 was > 50 µM (inactive) in the test with RXF 393; > 50 µM (inactive) with SW-620; 39.9 µM (inactive) in the test on MDA-MB-231; > 50 µM (inactive) in the test on OVCAR-4; > 50 µM (inactive) in the test on CCRF-CEM; > 50 µM (inactive) in the test on SF-295. Further, the GI50 in the test on HL-60 was > 50 µM (inactive); with OVCAR-8, > 50 µM (inactive); with SF-539, > 50 µM (inactive); with LOX IMVI it was > 50 µM (inactive); with HCT-15 it was more than 50 µM; in the test on NCI-H226, > 50 µM (inactive). The GI50 in the test with NCI/ADR-RES, in the test on MDA-N, with NCI-H460, with EKVX and with HOP-62 was > 50 µM (inactive) throughout.
For the compound `[O-][n+]1c2ccccc2[n+]([O-])c2cc(Br)ccc21`, the GI50 with RXF 393 is 18.1 µM (inactive); in the test on SW-620, 20.6 µM (inactive); with MDA-MB-231, 24.4 µM (inactive); in the test on OVCAR-4 it was 18.9 µM (inactive); in the test on CCRF-CEM, 0.0507 µM (active); in the test with SF-295, 20.6 µM (inactive). In addition, the GI50 is 0.144 µM (active) with MOLT-4; 1.31 µM (inactive) in the test on HL-60; 11.3 µM (inactive) in the test on MCF7; 14.8 µM (inactive) in the test on OVCAR-8; 13.9 µM (inactive) in the test with SF-539; 2.99 µM (inactive) in the test on LOX IMVI. The GI50 in the test on HCT-15 was 13.3 µM; in the test on NCI-H226, 21.6 µM (inactive); with NCI/ADR-RES, 16.1 µM (inactive); with A498, 17.9 µM (inactive); with NCI-H460 it was 10.4 µM (inactive); with EKVX, 16.7 µM (inactive). Moreover, the GI50 in the test on HOP-62 is 45 µM (inactive).
Consider `CC1=NNC(=O)C1C1CC(c2c[nH]c3ccccc23)=NN(c2ccccc2)C1=O` (centres undefined), for which the GI50 was > 100 µM (inactive) with RXF 393; 42.3 µM (inactive) with SW-620; > 100 µM (inactive) in the test on MDA-MB-231; 28.1 µM (inactive) in the test with CCRF-CEM; > 100 µM (inactive) in the test on SF-295; 34 µM (inactive) in the test on MOLT-4. The GI50 in the test on HL-60 was 34.7 µM (inactive); in the test on OVCAR-8, > 100 µM (inactive); with SF-539 it was 87.3 µM (inactive); in the test with LOX IMVI, 27.6 µM (inactive); with HCT-15, 37 µM; with NCI-H226 it was > 100 µM (inactive). Also, the GI50 with NCI/ADR-RES is 83.9 µM (inactive); in the test with A498, > 100 µM (inactive); in the test with MDA-N it was 59.2 µM (inactive); in the test with NCI-H460, > 100 µM (inactive); in the test with EKVX it was > 100 µM (inactive); in the test on HOP-62 it was > 100 µM (inactive).
On to `O=C(NCCCCN(CCCNC(=O)C(F)(F)F)Cc1ccccc1)C(F)(F)F`, for which the GI50 with RXF 393, in the test on SW-620, in the test with MDA-MB-231, in the test on OVCAR-4, in the test with CCRF-CEM and with SF-295 was > 100 µM (inactive) each time. Also, the GI50 in the test with MOLT-4 was > 100 µM (inactive); in the test on HL-60, > 100 µM (inactive); with MCF7, > 100 µM (inactive); in the test with OVCAR-8, > 100 µM (inactive); with SF-539, > 100 µM (inactive); in the test with HCT-15 it was more than 100 µM. In addition, the GI50 is 35.4 µM (inactive) with NCI-H226; > 100 µM (inactive) in the test on NCI/ADR-RES; > 100 µM (inactive) in the test on A498; > 100 µM (inactive) with NCI-H460; > 100 µM (inactive) in the test on EKVX; > 100 µM (inactive) in the test on HOP-62.

The GI50 is the concentration giving 50% growth inhibition.
